According to paper PMC6366974, “The curcumin analog EF24 is a novel senolytic agent” (Aging (Albany NY), 2019):
Residues, ends and D or L forms follow the SMILES beside them. *: point of attachment. Cbz = O=C(OCc1ccccc1)*

Legend:
[1] = system: WI-38 IR-induced senescent cells (IR-SCs); assay: Cell viability assay (flow cytometry, PI); format: cell-based, human; conditions: for EC50: Homo sapiens, WI-38 IR-SCs, 72 h, Table 1 screen of curcumin analogs; for selective toxicity against IR-SCs versus NCs (viability): WI-38, 72 h
Protocol: (§1) Human WI-38 fibroblasts (WI-38, Cat. No. CCL-75), human IMR-90 fibroblasts (IMR-90, Cat. No. CCL-186), human umbilical vein endothelial cells (HUVEC, Cat. No. CRL-1730), human renal epithelial cells (HREC, Cat. No. PCS-400-012) and human pre-adipocytes (Cat. No. PCS-210-010) were newly purchased from the American Type Culture Collection (ATCC, Manassas, VA, USA). WI-38 and IMR-90 cells were cultured in complete Dulbecco’s modified Eagle medium (DMEM, Cat. No. 12430054, Thermo Fisher Scientific, Waltham, MA, USA) supplemented with 10% heat-inactivated fetal bovine serum (FBS, Cat. No. S11150H, Atlanta Biologicals, Flowery Branch, GA, USA), 100 U/mL penicillin and 100 µg/mL streptomycin (Pen Strep, Cat. No. 15140122, Thermo Fisher Scientific, Waltham, MA, USA) in a humidified incubator at 37°C and 5% CO2. HUVEC were cultured in EGM-2 BulletKit (Cat. No. CC-3162, Lonza, Basel, Switzerland) containing basal medium supplemented with growth factors, cytokines and other supplements according to the manufacturer’s protocol. HREC were cultured in renal epithelial cell basal medium (Cat. No. PCS-400-030, ATCC, Manassas, VA, USA) supplemented with renal epithelial cell growth kit (Cat. No. PCS400040, ATCC, Manassas, VA, USA). Human pre-adipocytes were cultured in fibroblast basal medium (Cat. No. PCS-201-030, ATCC, Manassas, VA, USA) supplemented with fibroblast growth kit-low serum (Cat. No. PCS201041, ATCC, Manassas, VA, USA). EF24 (Cat. No. E8409) and HO-3867 (Cat. No. S7501) were purchased from Sigma-Aldrich (St. Louis, MO, USA) and Selleckchem (Houston, TX, USA), respectively. DIMC (Cat. No. 10009986) and 2-HBA (Cat. No. 11879) were both purchased from Cayman Chemical (Ann Arbor, MI, USA).
(§2) Three different methods were used for the induction of SCs, including replicative exhaustion, ionizing radiation and ectopic Ras expression as previously described. Briefly, low-passage WI-38 cells (< 25 passages), IMR-90 cells (< 25 passages), HUVEC (< 10 passages), HREC (< 10 passages) and pre-adipocytes (< 4 passages) were used as NCs or for the induction of senescence. To induce replicative senescence (Rep-SCs), WI-38 and IMR-90 fibroblasts, HUVEC, HREC and pre-adipocytes were subcultured until they stopped to divide and became permanently growth arrested senescence after 38 passages (WI-38), 38 passages (IMR-90), 22 passages (HUVEC), 30 passages (HREC) and 10 passages (pre-adipocytes), respectively. To induce SCs by ionizing radiation (IR-SCs) and ectopic expression of Ras (Ras-SCs), WI-38 NCs were treated as previously described.
(§3) Number of viable cells were quantified using flow cytometry as previously described with slight modifications. Specifically, NCs and SCs were incubated with vehicle (0.1% DMSO) or a test compound at indicated concentrations for 72 h. Following dissociation with 0.25% Trypsin-EDTA (Cat. No. 25200056, Thermo Fisher Scientific, Waltham, MA, USA) at 37°C for 5 min, the cells were harvested in 100 µl pre-cooled phosphate buffered saline (PBS, Cat. No. 20012027, Thermo Fisher Scientific, Waltham, MA, USA) containing 2% FBS and 100 ng/mL propidium iodide (PI, P4170, Sigma-Aldrich, St. Louis, MO, USA) and analyzed using flow cytometry (LSR II, BD Biosciences, San Jose, CA, USA). Percentage of viable cells were determined by counting the number of PI negative cells (viable cells) and then calculated as a ratio of control cells treated with vehicle. In addition, dose-response curves were generated for each compound, and the concentration for 50% of maximal effect (EC50 values) was calculated using GraphPad Prism 6.

[2] = system: WI-38 non-senescent cells (NCs); assay: Cell viability assay (flow cytometry, PI); format: cell-based, human; conditions: Homo sapiens; WI-38 NCs, 72 h, Table 1 screen of curcumin analogs
Protocol: as §1, §2, §3

[3] = set-up: method as in PMID 20211249; conditions: cited from earlier work
[4] = system: WI-38 IR-SCs; assay: Combination treatment cell viability and coefficient of drug interaction (CDI); format: cell-based, human; conditions: 72 h
Protocol: as §3
The data were analyzed by analysis of variance (ANOVA) with GraphPad Prism 6 (GraphPad Software, La Jolla, CA, USA). […] To detect the synergistic senolytic activities of EF24 and ABT263, CDI was calculated as previously described.

[5] = system: platelets; set-up: method as in PMID 22496272; conditions: cited from earlier work
[6] = system: Bcl-2 family proteins (Bcl-xl, Mcl-1, Bcl-2); assay: Proteasome inhibition experiment (MG132 pretreatment, western blots); format: cell-based, human; conditions: 1 µM MG132 1 h prior to EF24 for 72 h
Protocol: After treatment with vehicle or EF24 at 0.5, 1 and 2 µM for 72 h, WI-38 NCs or IR-SCs were harvested in 1.5mL microcentrifuge tubes, and lysed in RIPA buffer with EDTA and EGTA (Cat. No. BP-115DG, Boston BioProducts, Ashland, MA, USA) supplemented with 1% protease inhibitor cocktail (Cat. No. P8340, Sigma-Aldrich, St. Louis, MO, USA) and 1% phosphatase inhibitor cocktail (Cat. No. P0044, Sigma-Aldrich, St. Louis, MO, USA). An equal amount of protein (30 µg/lane) from each cell extract was resolved on a precast gel (Mini-PROTEAN TGX™, Cat. No. 456-1094, Bio-Rad, Hercules, CA, USA). Proteins were blotted to a precut 0.2 µm PVDF membrane (Invitrolon™, Cat. No. LC2002, Life Technologies, Carlsbad, CA, USA) by electrophoresis. The membranes were blocked with 1X TBS-Tween (TBST, Cat. No. J77500, Affymetrix, Santan Clara, CA, USA) containing 5% non-fat dry milk (Cat. No. sc-2324, Santa Cruz Biotechnology, Dallas, TX, USA), and subsequently probed with primary antibodies at a predetermined optimal concentration overnight at 4°C. The primary antibodies including Bcl-xl (Cat. No. 2762), Mcl-1 (Cat. No. 5453), and Bcl-2 (Cat. No. 2872) and β-actin (Cat. No. 4970) were purchased from Cell Signaling Technology (Danvers, MA, USA). […] The blotting membranes were recorded using autoradiography (SRX-101, Konica, Shinjuku, Tokyo, Japan). […]

[7] = system: WI-38 IR-SCs; assay: Apoptosis analysis (Annexin-V/PI flow cytometry); format: cell-based, human; conditions: 10 µM QVD 4 h prior to 2 µM EF24 for 72 h
Protocol: WI-38 NCs and SCs were treated with vehicle or 10 µM Q-VD-OPh (QVD, Cat. No. S7311, Selleckchem, Houston, TX, USA) for 4 h prior to the addition of vehicle or 2 µM EF24 for 72 h. The suspending cells were first harvested from the culture and then pooled with the adherent cells detached by 0.25% Trypsin-EDTA at 37°C for 5 min in 12 × 75 mm polystyrene round-bottom tubes (Cat. No. 352058, Falcon, Corning, NY, USA) containing complete DMEM medium. The cells were stained with Alexa Fluor 647-Annexin V (1: 50, Cat. No. 640912, BioLegend, San Diego, CA, USA) and PI (10 µg/mL, Cat. No. 421301, BioLegend, San Diego, CA, USA) at room temperature for 30 min. The stained cells were analyzed using a BD LSR II flow cytometer.

[8] = system: senescent human preadipocytes; set-up: method as in PMID 28273655; conditions: cited from earlier work

Structure (SMILES) | EC50 [1] [µM] | selective toxicity against IR-SCs versus NCs (viability) [1] | EC50 [2] [µM] | other results
O=C(C=Cc1ccccc1O)C=Cc1ccccc1O [2-HBA, Bis(2-hydroxybenzylidene)acetone] | 3.85 | lesser toxicities to NCs | 9.5 | 
C=CCNC1=C2C[C@@H](C)C[C@H](OC)[C@H](O)[C@@H](C)/C=C(\C)[C@H](OC(N)=O)[C@@H](OC)/C=C\C=C(/C)C(=O)NC(=CC1=O)C2=O [17-AAG] |  |  |  | hepatotoxicity [3]: unacceptable hepatotoxicity
CC1(C)CCC(c2ccc(Cl)cc2)=C(CN2CCN(c3ccc(C(=O)NS(=O)(=O)c4ccc(N[C@H](CCN5CCOCC5)CSc5ccccc5)c(S(=O)(=O)C(F)(F)F)c4)cc3)CC2)C1 [ABT263] |  |  |  | cell viability of IR-SCs, agent alone [4]: dose-dependently reduce; on-target toxicity to platelets [5]: dose-limiting thrombocytopenia
COc1ccc(/C=C/C(=O)CC(=O)/C=C/c2ccc(OC)c(OC)c2)cc1OC [DIMC, dimethoxycurcumin] | 15.2 | minimal selective toxicity | 23.8 | 
CC1(C)C=C(CN2C/C(=C\c3ccc(F)cc3)C(=O)/C(=C/c3ccc(F)cc3)C2)C(C)(C)N1O [HO-3867] | 3.85 | lesser toxicities to NCs | 8.3 | 
CC(C)C[C@@H](C=O)NC(=O)[C@H](CC(C)C)NC(=O)[C@H](CC(C)C)NC(=O)OCc1ccccc1 [MG132] (Cbz-Leu-Leu-Leu-aldehyde) |  |  |  | effect of MG132 pretreatment on downregulation of Bcl-2 family proteins by EF24 in SCs ([6]; WI-38 IR-SCs): abrogated; effect of MG132 pretreatment on expression of Bcl-2 family proteins in NCs ([6]; WI-38 NCs): no significant effect
CC(C)[C@H](NC(=O)c1ccc2ccccc2n1)C(=O)N[C@@H](CC(=O)O)C(=O)COc1c(F)cccc1F [QVD] |  |  |  | effect of QVD pretreatment on EF24 induction of SCs apoptosis [7]: completely blocked
O=c1c(O)c(-c2ccc(O)c(O)c2)oc2cc(O)ccc12 [fisetin] |  |  |  | senolytic activity against senescent human preadipocytes [8]: lacks senolytic activity
COC1=C2C[C@@H](C)C[C@H](OC)[C@H](O)[C@@H](C)/C=C(\C)[C@H](OC(N)=O)[C@@H](OC)/C=C\C=C(/C)C(=O)NC(=CC1=O)C2=O [geldanamycin] |  |  |  | hepatotoxicity [3]: unacceptable hepatotoxicity
